In article PMC7811981 (European Journal of Drug Metabolism and Pharmacokinetics, 2020):
Where two headings read alike, the source gives them in different places.

Legend:
[1] = assay type: in vivo, healthy adults (human); conditions: for AUC(0-inf) / Cmax / Tmax / half-life / AUC(0-t): human, plasma; for AUC(0-t): Period 2: omadacycline with verapamil, linear mixed-effect model
P-gp = assay type: in vivo, healthy adults (human); conditions: human, not told, po
P-glycoprotein (P-gp) = conditions: cited from earlier work
[2] = Safety and tolerability assessments; assay type: in vivo, healthy adults (human); conditions: for Safety and tolerability: healthy adults
[3] = phase I studies; cited from earlier work
[4] = period 2, single oral 240 mg verapamil ER; data not shown
[5] = Period 2/Period 1 (with verapamil / alone)

Q: Which results are given for CN(C)c1cc(CNCC(C)(C)C)c(O)c2c1C[C@H]1C[C@H]3[C@H](N(C)C)C(O)=C(C(N)=O)C(=O)[C@@]3(O)C(O)=C1C2=O [Omadacycline]?
A: λz terminal phase rate constant, arithmetic mean (arithmetic coefficient of variation) ([1]; Period 1: omadacycline alone, 300 mg oral, N = 12): 0.1 (11.2) l/h; AUC0–24, ratio of geometric LS mean [1, 5]: 118.5%; AUC0–inf, ratio of geometric LS mean [1, 5]: 124.6%; AUC0–t, ratio of geometric LS mean [1, 5]: 118.6%; Cmax, ratio of geometric LS mean [1, 5]: 113.6%; λz terminal phase rate constant, arithmetic mean (arithmetic coefficient of variation) ([1]; Period 2: omadacycline with verapamil ER 240 mg, N = 10): 0.05 (10.7) l/h; Increase in systemic exposure to omadacycline (AUC0–24, AUC0–t, AUC0–inf, Cmax) ([1]; after single oral 240 mg verapamil ER compared with omadacycline alone): 14–25%; Plasma concentrations measurable up to (last sampling time) ([1]; both treatment periods, all instances): 24 h; Time postdose within which Cmax was attained (visual inspection) ([1]; both treatment periods, mean plasma concentration-time profiles): ≤ 3 h; AUC(0-inf) ([1]; oral): 10.8 µg·h/mL; Cmax ([1]; oral): 0.607 µg/mL; AUC(0-inf) ([1]; oral, 240 mg): 10.8 µg·h/mL; Cmax ([1]; oral, 240 mg): 0.596 µg/mL; Tmax ([1]; oral, 240 mg): 2.8 h; half-life ([1]; oral, 240 mg): 14 h; AUC(0-inf) ([1]; oral, 300 mg): 8.69 µg·h/mL; Cmax ([1]; oral, 300 mg): 0.534 µg/mL; AUC(0-t) ([1]; oral, AUC0–24, geometric LS mean, N = 10): 7.34 µg·h/mL; AUC(0-t) ([1]; oral, AUC0–t, geometric LS mean, N = 10): 7.34 µg·h/mL; AUC(0-inf) ([1]; po, 300 mg): 8.69 µg·h/mL; Cmax ([1]; po, 300 mg): 0.534 µg/mL; Tmax ([1]; po, 300 mg): 2.8 h; half-life ([1]; po, 300 mg): 12.7 h; AUC measures (AUC0–24, AUC0–t, AUC0–inf) higher than omadacycline alone ([1]; period 2 (after verapamil) vs period 1): 18–25%; Increase in geometric mean of AUC0–inf ([1]; verapamil dosing compared with omadacycline alone): 18–25%; Increase in bioavailability by inhibition of P-gp (as much as) ([1]; with verapamil, relative increase): ≤ 25.0%; bioavailability (P-gp): ~43.1%; P-gp interaction (P-glycoprotein (P-gp); in vitro studies): substrate, but not as an inhibitor; Propensity to permeate across the gastrointestinal (GI) tract (P-glycoprotein (P-gp); in vitro studies): low propensity to permeate; P-gp interaction (P-glycoprotein (P-gp); in vitro transporter studies in CaCo cells): substrate of P-gp (but not an inhibitor or inducer); Clinical laboratory test results, vital sign measurements, physical examination findings, 12-lead ECG results ([2]; omadacycline alone and with verapamil ER): no clinically relevant findings; Safety and tolerability ([2]; single oral 300 mg omadacycline plus 240 mg verapamil ER): safe and well tolerated; Safety and tolerability ([2]; single oral dose 300 mg omadacycline alone): safe and well tolerated; Exposure of 300 mg oral dose versus 100 mg IV dose [3]: comparable exposure

Q: With COc1ccc(CCN(C)CCCC(C#N)(c2ccc(OC)c(OC)c2)C(C)C)cc1OC (centres unmarked) [verapamil] as the compound, how does the “Plasma concentrations measurable from 2 h after administration up to (last sampling time)” value [4] read?
A: 24 h
